Measurements from the supplement of paper PMC4862054.

Experiments:
Conditions in all cases: incubation time: 72 h
[1] = tested on: BT-549; assay: normalised viability (% of control), CellTiter-Blue; higher = more viable cells (about 100 = DMSO control)
Protocol: (§1)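 DSRT, CellTiter-Blue viability, 72 h incubation. Signal is normalised to DMSO and benzethonium chloride controls. Value is the normalised response at dose 3.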

[2] = tested on: MFM-223; assay: as above
Protocol: as §1

[3] = tested on: MDA-MB-468; assay: as above
Protocol: as §1

[4] = tested on: MDA-MB-231; assay: drug sensitivity score (DSS), CellTiter-Blue viability (DSS (AUC-based score)); higher = stronger viability inhibition; extreme values may be limits of the assay
Protocol: (§2)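 DSRT with the CellTiter-Blue (resazurin reduction) viability readout, fluorescence 560/590 nm, 72 h incubation. Plates were normalised to DMSO and benzethonium chloride controls. DSS is computed from the area under the fitted dose-response curve (5 or 9 concentrations).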

[5] = tested on: MFM-223; assay: as above
Protocol: as §2

[6] = tested on: BT-549; assay: normalised viability (% of control), CellTiter-Blue; higher = more viable cells (about 100 = DMSO control); remark: listed apart in the source
Method in brief: (§3)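 Each value is normalised viability at a single listed concentration of the series. Breast cancer cell lines in 384-well plates were incubated 72 h with compound and read by CellTiter-Blue fluorescence at 560/590 nm, with vehicle set to 100 and a positive kill control to 0 on every plate.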

[7] = tested on: MDA-MB-231; assay: as above
Method in brief: as §3

[8] = tested on: Hs578T; assay: as above
Method in brief: as §3

[9] = tested on: HCC1937; assay: as above
Method in brief: as §3

[10] = tested on: HDQ-P1; assay: as above
Method in brief: as §3

[11] = tested on: SK-BR-3; assay: as above
Method in brief: as §3

[12] = tested on: CAL-148; assay: as above
Method in brief: as §3

[13] = tested on: MDA-MB-436; assay: as above
Method in brief: as §3

[14] = tested on: MFM-223; assay: as above; remark: listed apart in the source
Method in brief: as §3

[15] = tested on: CAL-120; assay: as above
Method in brief: as §3

[16] = tested on: BT-474; assay: as above
Method in brief: as §3

[17] = tested on: MDA-MB-453; assay: as above
Method in brief: as §3

[18] = tested on: HCC1143; assay: as above
Method in brief: as §3

[19] = tested on: MDA-MB-468; assay: as above; remark: listed apart in the source
Method in brief: as §3

[20] = tested on: HCC1599; assay: as above
Method in brief: as §3

[21] = tested on: CAL-51; assay: as above
Method in brief: as §3

[22] = tested on: DU-4475; assay: as above
Method in brief: as §3

[23] = tested on: CAL-85-1; assay: as above
Method in brief: as §3

O=C(NC[C@H](O)CO)c1ccncc1Nc1ccc(I)cc1F
Conditions | normalised viability [%]
[1], 100 nM | 101
[2], 100 nM | 85.4
[3], 100 nM | 87.3
[6], 10 nM | 93.2
[6], 1000 nM | 88.6
[6], 10000 nM | 88
[7], 10 nM | 75.5
[7], 1000 nM | 31.7
[7], 10000 nM | 31.4
[8], 10 nM | 114
[8], 1000 nM | 95.3
[8], 10000 nM | 67.4
[9], 10 nM | 94.6
[9], 1000 nM | 87.8
[9], 10000 nM | 79.8
[10], 3 nM | 107
[10], 30 nM | 97.8
[10], 100 nM | 91.9
[11], 10 nM | 98.4
[11], 1000 nM | 102
[11], 10000 nM | 55.5
[12], 3 nM | 86
[12], 30 nM | 86.4
[12], 100 nM | 82.7
[13], 10 nM | 92.2
[13], 1000 nM | 85.6
[13], 10000 nM | 79.2
[14], 10 nM | 90.2
[14], 1000 nM | 86
[14], 10000 nM | 52.2
[15], 10 nM | 85.1
[15], 1000 nM | 55.7
[15], 10000 nM | 43.1
[16], 10 nM | 107
[16], 1000 nM | 104
[16], 10000 nM | 114
[17], 3 nM | 99.6
[17], 30 nM | 89.2
[17], 100 nM | 90.9
[18], 10 nM | 69.5
[18], 1000 nM | 55.4
[18], 10000 nM | 50.1
[19], 10 nM | 97.7
[19], 1000 nM | 85.7
[19], 10000 nM | 60.7
[20], 10 nM | 108
[20], 1000 nM | 78
[20], 10000 nM | 67.2
[21], 3 nM | 111
[21], 30 nM | 88.5
[21], 100 nM | 85.8
[22], 3 nM | 79.2
[22], 30 nM | 16.4
[22], 100 nM | 1.76
[23], 3 nM | 79.1
[23], 30 nM | 83.4
[23], 100 nM | 85.7

Conditions | drug sensitivity score
[4] | 21.9
[5] | 0

Nc1nc(=O)c2c([nH]1)NCC(CNc1ccc(C(=O)N[C@@H](CCC(=O)O)C(=O)O)cc1)N2C=O (mixture of isomers) [Folinic acid]
Conditions | normalised viability [%]
[1], 9.9 nM | 101
[2], 9.9 nM | 95.5
[3], 9.9 nM | 119
[6], 0.99 nM | 100
[6], 99 nM | 105
[6], 990 nM | 102
[7], 0.99 nM | 100
[7], 99 nM | 123
[7], 990 nM | 118
[8], 0.99 nM | 92.2
[8], 99 nM | 102
[8], 990 nM | 96.3
[9], 0.99 nM | 121
[9], 99 nM | 87.8
[9], 990 nM | 107
[10], 0.297 nM | 122
[10], 2.97 nM | 115
[10], 9.9 nM | 92.2
[11], 0.99 nM | 95.3
[11], 99 nM | 98.6
[11], 990 nM | 116
[12], 0.297 nM | 92.2
[12], 2.97 nM | 88.9
[12], 9.9 nM | 96.6
[13], 0.99 nM | 123
[13], 99 nM | 112
[13], 990 nM | 123
[14], 0.99 nM | 106
[14], 99 nM | 107
[14], 990 nM | 94.4
[15], 0.99 nM | 105
[15], 99 nM | 110
[15], 990 nM | 108
[16], 0.99 nM | 106
[16], 99 nM | 99.6
[16], 990 nM | 116
[17], 0.297 nM | 110
[17], 2.97 nM | 109
[17], 9.9 nM | 103
[18], 0.99 nM | 92.7
[18], 99 nM | 95.8
[18], 990 nM | 92
[19], 0.99 nM | 115
[19], 99 nM | 107
[19], 990 nM | 115
[20], 0.99 nM | 111
[20], 99 nM | 106
[20], 990 nM | 118
[21], 0.297 nM | 94
[21], 2.97 nM | 92
[21], 9.9 nM | 97.6
[22], 0.297 nM | 110
[22], 2.97 nM | 85
[22], 9.9 nM | 109
[23], 0.297 nM | 96.2
[23], 2.97 nM | 93.9
[23], 9.9 nM | 99.8

Conditions | drug sensitivity score
[4] | 0
[5] | 0

O=C(Nc1c[nH]nc1-c1nc2ccc(CN3CCOCC3)cc2[nH]1)NC1CC1 [AT9283]
Conditions | normalised viability [%]
[1], 100 nM | 86
[2], 100 nM | 64
[3], 100 nM | 29.4
[6], 10 nM | 95.8
[6], 1000 nM | 46.7
[6], 10000 nM | 4.31
[7], 10 nM | 87.5
[7], 1000 nM | 43.3
[7], 10000 nM | 5.14
[8], 10 nM | 124
[8], 1000 nM | 33.9
[8], 10000 nM | 1.79
[9], 10 nM | 106
[9], 1000 nM | 43.4
[9], 10000 nM | 15.5
[10], 3 nM | 113
[10], 30 nM | 97.3
[10], 100 nM | 81.2
[11], 10 nM | 93.9
[11], 1000 nM | 40.3
[11], 10000 nM | 6.9
[12], 3 nM | 80
[12], 30 nM | 69
[12], 100 nM | 31.8
[13], 10 nM | 97.4
[13], 1000 nM | 64.2
[13], 10000 nM | 29.6
[14], 10 nM | 93.4
[14], 1000 nM | 57.4
[14], 10000 nM | 19
[15], 10 nM | 84.9
[15], 1000 nM | 22.1
[15], 10000 nM | 6.61
[16], 10 nM | 111
[16], 1000 nM | 78.8
[16], 10000 nM | 7.58
[17], 3 nM | 99.2
[17], 30 nM | 60.1
[17], 100 nM | 54.7
[18], 10 nM | 77.8
[18], 1000 nM | 51.8
[18], 10000 nM | 13.9
[19], 10 nM | 108
[19], 1000 nM | 43.1
[19], 10000 nM | 6.32
[20], 10 nM | 102
[20], 1000 nM | 72.5
[20], 10000 nM | 11.9
[21], 3 nM | 107
[21], 30 nM | 97.8
[21], 100 nM | 56.3
[22], 3 nM | 91.2
[22], 30 nM | 94.1
[22], 100 nM | 43.9
[23], 3 nM | 89.8
[23], 30 nM | 72.8
[23], 100 nM | 78.6

Conditions | drug sensitivity score
[4] | 13.2
[5] | 12.4

COc1cc(CCc2cc(NC(=O)c3ccc(N4CC(C)NC(C)C4)cc3)n[nH]2)cc(OC)c1 (stereo unspecified) [AZD4547]
Conditions | normalised viability [%]
[1], 10 nM | 109
[2], 10 nM | 59.2
[3], 10 nM | 108
[6], 1 nM | 89.1
[6], 100 nM | 105
[6], 1000 nM | 112
[7], 1 nM | 110
[7], 100 nM | 105
[7], 1000 nM | 113
[8], 1 nM | 102
[8], 100 nM | 91.2
[8], 1000 nM | 122
[9], 1 nM | 157
[9], 100 nM | 103
[9], 1000 nM | 115
[10], 0.3 nM | 113
[10], 3 nM | 120
[10], 10 nM | 117
[11], 1 nM | 112
[11], 100 nM | 113
[11], 1000 nM | 105
[12], 0.3 nM | 97.9
[12], 3 nM | 93.7
[12], 10 nM | 89.7
[13], 1 nM | 105
[13], 100 nM | 104
[13], 1000 nM | 109
[14], 1 nM | 91
[14], 100 nM | 50.4
[14], 1000 nM | 12.3
[15], 1 nM | 86
[15], 100 nM | 80.4
[15], 1000 nM | 65.1
[16], 1 nM | 121
[16], 100 nM | 119
[16], 1000 nM | 128
[17], 0.3 nM | 119
[17], 3 nM | 91.5
[17], 10 nM | 95.8
[18], 1 nM | 94.3
[18], 100 nM | 87.9
[18], 1000 nM | 93
[19], 1 nM | 113
[19], 100 nM | 105
[19], 1000 nM | 105
[20], 1 nM | 92.5
[20], 100 nM | 77.4
[20], 1000 nM | 18.8
[21], 0.3 nM | 120
[21], 3 nM | 107
[21], 10 nM | 99.8
[22], 0.3 nM | 92.3
[22], 3 nM | 84
[22], 10 nM | 103
[23], 0.3 nM | 91
[23], 3 nM | 90
[23], 10 nM | 94.6

Conditions | drug sensitivity score
[4] | 0
[5] | 15.1
